Assays:
[1] = target: T1, human serum albumin (HSA) (Homo sapiens, UniProt P02768); experiment: In vitro binding to HSA via SPR (Biacore 8K)
Method: (§1) According to the instructions for the Amine Coupling Kit, Type 2 (Cytiva), immobilize human serum albumin onto the surface of the CM5 sensor chip of the S Series. […] Human serum albumin (HSA) was diluted to 20 µg/mL with acetic acid solution of pH 4.5. The EDC/NHS mixture solution, HSA protein solution, and 1M ethanolamine-hydrochloric acid solution were added to the detection plate according to the program settings. b) The detection plate was placed into the Biacore 8K sample compartment. The EDC/NHS mixture solution, HSA protein solution, and 1M ethanolamine-hydrochloric acid solution were sequentially injected into the channels on the surface of the CM5 chip by the Biacore 8K according to the program. Through this process, the chip was activated, the ligand was coupled, and the chip was deactivated. Each channel consists of two circulation pools, with circulation pool 1 serving as the reference channel undergoing only surface activation and deactivation without injection of HSA protein solution.
(§2) The detection plate was placed into the sample compartment of the Biacore 8K, with the running buffer serving as the 0-concentration reference sample. c) Run the detection program, with samples sequentially injected into each channel of the chip according to the program.
(§3) Finally, the data was analyzed using BiaCore Insight Evaluation Software, employing a 1:1 binding model for analysis.

normal SD rats = experiment: Pharmacodynamic study in normal SD rats (blood glucose, single subcutaneous dose); format: in vivo; conditions: for Blood Glucose Levels: Table 4.2, SD rats, 650 nmol/kg s.c. single dose, Mean ± SEM, n = 8
Method: Normal male SD rats aged 8-9 weeks, body weight 280-320 g, were selected. Animals were housed in animal housing facilities with strictly controlled environmental conditions, where the temperature is maintained between 20°Cand 24°C and humidity was kept between 30 and 70%. During the experiment, animals were housed individually with free access to food and water.
After one week of adaptive feeding, the experiment commenced. Rats were assigned to Solvent group 1, Solvent group 2, and the treatment group based on body weight and blood glucose levels before administration, with eight rats per group. The administered doses were all 650 nmol/kg.
The above drugs were dissolved in the solvent to a concentration of 216.7 nmol/mL. The dosing volume is 3 mL/kg. For a single subcutaneous administration, with the administration time set as 0 hours, blood glucose levels were measured at 0 h before dosing, and at 4 h, 8 h, 24 h, 28 h, 48 h, 72 h, 96 h, and 120 h after dosing (without dietary restrictions).

[2] = target: T1, human serum albumin (HSA); conditions: hsa on cm5 chip
Method: as §1, §2, §3

[3] = HSA on CM5 chip, 1:1 binding model

T1 sequence (P02768 25-609): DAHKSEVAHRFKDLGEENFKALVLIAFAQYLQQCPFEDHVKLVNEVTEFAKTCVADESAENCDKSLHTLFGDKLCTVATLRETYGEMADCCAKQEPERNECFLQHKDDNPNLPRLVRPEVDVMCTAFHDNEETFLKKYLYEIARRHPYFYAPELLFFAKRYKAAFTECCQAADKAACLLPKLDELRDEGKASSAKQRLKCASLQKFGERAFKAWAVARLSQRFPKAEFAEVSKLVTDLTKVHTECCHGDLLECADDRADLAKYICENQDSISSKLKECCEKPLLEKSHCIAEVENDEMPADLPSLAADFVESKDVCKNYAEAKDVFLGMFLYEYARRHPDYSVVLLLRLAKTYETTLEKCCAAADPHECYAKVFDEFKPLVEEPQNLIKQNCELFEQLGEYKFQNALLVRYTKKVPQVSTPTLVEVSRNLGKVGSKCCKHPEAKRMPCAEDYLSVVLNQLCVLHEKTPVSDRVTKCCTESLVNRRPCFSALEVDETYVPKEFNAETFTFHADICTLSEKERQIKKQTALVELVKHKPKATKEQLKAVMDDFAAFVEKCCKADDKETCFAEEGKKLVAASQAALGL

A14E, B16H, B25H, B29K (N^ε-[1-(19-Carboxyl-nonadecyloxy)-β-D-glucuronyl]-γGlu-[2-(2-{2-[2-(2-Aminoethoxy) ethoxy]acetylamino}ethoxy)ethoxy]acetyl), desB27, desB30 human insulin [Compound 4]
ka [1, 3]: 612 M⁻¹ s⁻¹
kd [1, 3]: 0.169 s⁻¹
binding affinity to HSA ([1]; comparison in words with Icodec, SPR): superior binding affinity to HSA compared to Icodec
Blood Glucose Levels (normal SD rats; 0 h (before dosing)): 7.3 ± 0.1
Blood Glucose Levels (normal SD rats; 4 h): 3.6±0.3
Blood Glucose Levels (normal SD rats; 24 h): 4.2±0.4
Blood Glucose Levels (normal SD rats; 48 h): 4.4±0.5
Blood Glucose Levels (normal SD rats; 72 h): 6.6±0.5
Blood Glucose Levels (normal SD rats; 96 h): 7.8±0.1
Blood Glucose Levels (normal SD rats; 120 h): 7.5 ± 0.1
hypoglycemic effect (normal SD rats; comparison in words with Icodec, SD rats, s.c.): superior to Icodec
Kd [2]: 275 µM

From patent EP4722236A1, “INSULIN DERIVATIVE AND USE THEREOF” (The United Bio-Technology (Hengqin) Co., Ltd., priority 2023, dated 2024)
